For one test, the target named is T1, HIF2α (Homo sapiens, UniProt Q99814).
T1 construct: gene EPAS1; PAS-B domain (human HIF2α-B)
Kind of test: isothermal titration calorimetry (iTC200), purified PAS-B domain titrated into PT2567. It is filed as binding. For orientation: Isothermal titration calorimetry measures the heat released or taken up as one component is titrated into another.

Another test addresses T2, rat HIF2α (Rattus norvegicus, UniProt Q9JHS1).
T2 construct: gene Epas1; PAS-B domain (rat HIF2α-B, made from the human HIF2α-B expression vector by mutating T262L, I265V and I326V)
The description is as above. It is filed as binding.

T1 sequence (Q99814 240-350 limits assumed): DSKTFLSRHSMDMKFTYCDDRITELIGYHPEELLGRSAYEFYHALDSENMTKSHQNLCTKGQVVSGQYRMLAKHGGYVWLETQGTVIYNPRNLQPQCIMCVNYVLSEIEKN
T2 sequence (Q9JHS1 240-350 limits assumed): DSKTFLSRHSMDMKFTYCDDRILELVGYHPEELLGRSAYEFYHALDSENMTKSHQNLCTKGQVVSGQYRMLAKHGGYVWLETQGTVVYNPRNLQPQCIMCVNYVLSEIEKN

Turning to PT2567, the Kd turned out to be 30 nM on HIF2α and 29 nM on rat HIF2α.

Broadly, the Kd is the constant that tells how readily two partners part at equilibrium. A lower Kd goes with a tighter complex.

The values are drawn from PMC7930471, “Targeting HIF2α-ARNT hetero-dimerisation as a novel therapeutic strategy for pulmonary arterial hypertension” (The European Respiratory Journal, 2021).
